Patent publication US11889833B2, “Protoporphyrinogen oxidase inhibitors” (Enko Chem, Inc., priority 2022, dated 2024)

Key:
Type in all cases: in vivo
[1] = tested on: Echinochloa crus-galli (ECHCG); experiment: Post-emergence herbicidal activity, ECHCG; conditions: % visual injury compared to treatment control, 7 days after treatment
Experimental: (§1) Selected compounds of the invention were screened at 100 PPM against Amaranthus retroflexus (AMARE), Echinochloa crus-galli (ECHCG), Kochia scoparia (KCHSC), and Setaria italica (SETIT).
(§2) Accordingly, PPO susceptible weed seeds were sown in 5″×5″ pots by quadrant containing Miracle-Gro potting mix (Scotts Miracle-Gro Company, Marysville, OH, USA) and grown in a Conviron growth chamber with appropriate growth conditions (temperature of 26/22° C. with photoperiod 16/8 h light day/night and light intensity of 300 μmol m^−2s^−1 supplemented by LED lamps). Relative humidity in the growth chamber was maintained at around 65%. Plants were grown until 2-4 leaf stage and thinned to 5-8 plants per quadrant per species.
(§3) Compounds were formulated in 25% Acetone, 1% Crop oil concentrate (COC-Agridex), 0.1% Tween-20, and 2.5% Ammonium sulphate (AMS). Three replicate pots were treated with each compound. Treatment consisting of the above formulation excluding active compound was applied as a treatment control (TC). Plants were treated with the test compound solution in a laboratory spray chamber fitted with 8003 flat fan nozzles calibrated to deliver 187-200 L ha^−1 at 269 kPa. Plants were placed back in the growth chamber and evaluated for % visual injury compared to TC 7 days after treatment (DAT). The data presented in Table 3 indicate a percentage control, where 100% control indicates complete inhibition of growth.

Setaria italica (SETIT) = experiment: Post-emergence herbicidal activity, SETIT; conditions: % visual injury compared to treatment control, 7 days after treatment
Experimental: as §1, §2, §3

Kochia scoparia (KCHSC) = experiment: Post-emergence herbicidal activity, KCHSC; conditions: % visual injury compared to treatment control, 7 days after treatment
Experimental: as §1, §2, §3

[2] = tested on: Amaranthus retroflexus (AMARE); experiment: Post-emergence herbicidal activity, AMARE; conditions: % visual injury compared to treatment control, 7 days after treatment
Experimental: as §1, §2, §3

[3] = tested on: Amaranthus retroflexus (AMARE); experiment: Pre-emergence herbicidal activity, AMARE; conditions: % growth and germination inhibition compared to treatment control, 7 days after treatment
Experimental: Selected compounds of the invention were screened at 200 PPM against Amaranthus retroflexus (AMARE).
Accordingly, PPO susceptible weed seeds were planted in 5″×5″ pots by quadrant containing custom field soil mix (Sandy loam with 4.7% OM, pH 7.0) and covered with a fine layer of the same soil. Compounds were formulated in 25% Acetone, 1% Crop oil concentrate (COC-Agridex), 0.1% Tween-20, and 2.5% Ammonium sulphate (AMS). Three replicate pots were treated with each compound. Treatment consisting of the above formulation excluding active compound was applied as a treatment control (TC). Pots were treated with the test compound solution in a laboratory spray chamber fitted with 8003 flat fan nozzles calibrated to deliver 187-200 L ha-1 at 269 kPa. Compound was incorporated into the soil by simulating rainfall equivalent to 0.2 mm using the same track sprayer. Subsequently, pots were irrigated from the bottom until assessed for % growth and germination inhibition. Pots were placed back in the growth chamber and evaluated for % growth and germination inhibition compared to TC 7 days after treatment (DAT). Growth conditions are similar to the ones mentioned in POST emergence assay.
The data presented in Table 4 indicate a percentage control, where 100% control indicates complete inhibition of growth and germination.

Structure (SMILES)	Post-emergence (100 ppm) ECHCG, percentage control [1] [%]	Post-emergence (100 ppm) SETIT, percentage control (Setaria italica (SETIT)) [%]	Post-emergence (100 ppm) KCHSC, percentage control (Kochia scoparia (KCHSC)) [%]	Post-emergence (100 ppm) AMARE, percentage control [2] [%]	AMARE pre-emergence (200 ppm), percentage control [3] [%]
CCC(=O)NS(=O)(=O)c1cc(-c2c(F)c(F)c(F)c(F)c2F)c(F)cc1Cl [Compound 18, N-((4-chloro-2′,3′,4′,5′,6,6′-hexafluoro-[1,1′-biphenyl]-3-yl)sulfonyl)propionamide]	100	100	23	100	100
C[C@H](Sc1cc(-c2c(F)c(F)c(F)c(F)c2F)c(F)cc1Cl)C(=O)NCCC(=O)O [Compound 7, (S)-3-(2-((4-chloro-2′,3′,4′,5′,6,6′-hexafluoro-[1,1′-biphenyl]-3-yl)thio)propanamido)propanoic acid]	37	28	20	100	–
CN(C)C(=O)NS(=O)(=O)c1cc(-c2c(F)c(F)c(F)c(F)c2F)c(F)cc1Cl [Compound 16, 4-chloro-N-(dimethylcarbamoyl)-2′,3′,4′,5′,6,6′-hexafluoro-[1,1′-biphenyl]-3-sulfonamide]	95	43	8	33	100
CCC(=O)NS(=O)(=O)c1cc(-c2c(F)cc(F)c(F)c2F)c(F)cc1Cl [Compound 26, N-((4-chloro-2′,3′,4′,6,6′-pentafluoro-[1,1′-biphenyl]-3-yl)sulfonyl)propionamide]	100	100	15	100	100
CC(=O)NS(=O)(=O)c1cc(-c2c(F)c(F)c(F)c(F)c2F)c(F)cc1Cl [Compound 17, N-((4-chloro-2′,3′,4′,5′,6,6′-hexafluoro-[1,1′-biphenyl]-3-yl)sulfonyl)acetamide]	100	100	13	88	100
COC(=O)CCNC(=O)[C@@H](C)Sc1cc(-c2c(F)c(F)c(F)c(F)c2F)c(F)cc1Cl (single isomer, unassigned) [Compound 6]	10	8	12	100	–
C[C@@H](Sc1cc(-c2c(F)c(F)c(F)c(F)c2F)c(F)cc1Cl)C(=O)NCCC(=O)O [Compound 8, (R)-3-(2-((4-chloro-2′,3′,4′,5′,6,6′-hexafluoro-[1,1′-biphenyl]-3-yl)thio)propanamido)propanoic acid]	28	23	23	100	–
